According to PMC6369734, “Spy vs. spy: selecting the best reporter for ^19F NMR competition experiments” (Chemical Communications (Cambridge, England), 2019):
Like-named read-outs stand apart in the source and are kept apart here.

Tests used:
VHL (VBC complex) [1] = molecular target: T1, VHL (VBC complex) (Homo sapiens, UniProt P40337); assay: 19F CPMG NMR transverse relaxation rate (R2) and R2 contrast (C2) of spy molecule with and without protein; type: binding; settings: for R2 contrast – C2: supplement 8.1
T1 construct: equimolar complex of pVHL54-213, eloB1-104 and; made in house; host or cells: E. coli
T1 sequence (P40337 54-213): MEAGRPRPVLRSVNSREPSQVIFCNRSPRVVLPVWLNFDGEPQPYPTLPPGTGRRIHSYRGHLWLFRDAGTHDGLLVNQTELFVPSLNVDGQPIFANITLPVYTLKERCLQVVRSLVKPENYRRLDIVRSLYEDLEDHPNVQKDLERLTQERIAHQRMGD
T1 sequence (Q15370 1-104 partner limits assumed): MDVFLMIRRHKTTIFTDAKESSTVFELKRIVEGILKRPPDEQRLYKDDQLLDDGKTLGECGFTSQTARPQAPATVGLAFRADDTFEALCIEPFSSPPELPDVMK
T1 sequence (Q15369 17-112 partner limits assumed): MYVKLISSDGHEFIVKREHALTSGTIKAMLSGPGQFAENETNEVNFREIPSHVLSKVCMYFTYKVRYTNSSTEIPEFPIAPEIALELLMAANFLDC
Description: Due to the large CSA of fluorine and the significant differences in the fluorine isotropic chemical shift (δF) between the free and bound states, the transverse relaxation rate (R2) is a well-established sensitive parameter to detect ligand binding.[4] Therefore, fluorine NMR experiments including a Carr–Purcell–Meiboom–Gill (CPMG) spin-echo filter[10] before acquisition were employed to monitor ligand binding to VHL by measuring peak intensity, as changes in other NMR parameters, such as chemical shift and peak width, were not as significant. The R2 values of the CF3 peak of each compound in the absence and in the presence of protein were determined by performing multiple ^19F CPMG experiments varying the CPMG filter (Fig. 2a). To quantify the shift in R2 upon binding, the R2 contrast (C2)[11] was determined. Ideally, a good spy molecule should have a large increase in R2 (fast relaxation) when protein is present, resulting in a large assay window for the competition experiments (Fig. 2b).
5. Measurement of the transverse relaxation rates by 19F CPMG NMR
All the NMR experiments were performed in a 500 MHz Bruker AVANCE N MR spectrometer equipped with a CPQCI -F cryoprobe. To measure the transverse relaxation rates (R 2), a solution of each spy molecule at 100 μM was prepared in 50 mM potassium phosphate monobasic (KH2PO4), pH 7.5, 100 mM NaCl, 1 mM TCEP, 2% (v/v) DMSO, 20% D2O and 10 µM trifluoroacetic acid (TFA). For each solution, 19F CPMG experiments […]
Due to the fast relaxation of molecules 21 and 22, these experiments were repeated with shorter CPMG filters (50, 100, 150, 200, 300, 400, 700 and 1000 ms). The fluorine peaks were integrated and plotted against the resp ective CPMG filters. The R 2 relaxation rates were obtained from fitting the data as a n exponential decay (GraphPad Prism 6) according to the equation below: [7]
Where I(t) is the 19F signal intensity or integral, t is the total CPMG filter in seconds, I(0) is the signal intensity when t = 0. To obtain the R2 upon addition of prot ein, all the experiments above were repeated in presence of VBC at 1 µM. Experiments were performed as triplicates and the R 2 contrasts (C2) were obtained according to the equation below: [8]
Where R2Free is the R2 obtained for the spy molecule free in solution and R2Observed is the R2 obtained with the spy molecule in presence of VBC. The raw data, fitting, R2 and C2 values for each spy molecule can be found in section 8.1. For the R2 measurements using molecule 19 at varied concentrations of spy molecule and protein, see section 8.2 . For the R2 measurements using spy molecules 6 and 11 (used to generate figures S 2, S3 and S4) see

[2] = molecular target: T2, VHL (VBC complex: pVHL54-213, eloB1-104, eloC17-112) (Homo sapiens, UniProt P40337); assay: Surface plasmon resonance (SPR) steady-state binding to immobilised biotinylated AviVBC; parameters: key to K D, SPR (footnote symbol instead of value): ^c: High responses in the SPR experiments, promiscuous or unspecific binders
T2 construct: equimolar complex of pVHL54-213, eloB1-104 and; made in house; host or cells: E. coli
T2 sequence (P40337 54-213): as the sequence (P40337 54-213) above
T2 sequence (Q15370 1-104 partner limits assumed): as the sequence (Q15370 1-104 partner limits assumed) above
T2 sequence (Q15369 17-112 partner limits assumed): as the sequence (Q15369 17-112 partner limits assumed) above
Protocol: The KD of each compound to VHL was determined by surface plasmon resonance (SPR) experiments.
3. Protein expression, purification and biotinylation
The VHL E3 ligase is a multi-protein complex composed of five proteins: VHL protein (pVHL), elongin B (eloB), elongin C (eloC), Cullin-2 (Cul2) and Ring-box protein 1 (Rbx1).[3] Since the compounds developed in this work bind solely to the VHL protein, the VBC complex (equimolar complex of pVHL54-213, eloB1-104 and eloC17-112) was used in all experiments, as it can be readily expressed in E. coli with high yields,[4] while the full E3 ligase would require baculovirus-insect cells expression system.[5] The expression and purification of VBC was performed as described previously by our group[2] and employed directly in all NMR experiments.
For the surface plasmon resonance (SPR) experiments, a VBC complex containing an AviTagTM in the N-terminus of eloB (AviVBC) was purified using the same procedure described for VBC. The modified eloB/eloC expression plasmid was previously developed in-house by Dr. Michael Roy and kindly shared. The AviVBC complex was site-specifically biotinylated in the AviTag using the GST-BirA method previously described by […]
4. Surface plasmon resonance experiments
The SPR experiments were performed with a Biacore T200 instrument (GE Healthcare). All measurements were performed at 20 °C with buffer containing 10 mM HEPES, pH 7.5, 150 mM NaCl, 1 mM TCEP, 0.005% (v/v) Tween® 20 and 2% (v/v) dimethyl sulfoxide (DMSO). Biotinylated AviVBC (~0.5 μM) was immobilised at 22 °C onto a Series S sensor chip SA (GE Heathcare) to levels of approximately 3500-4000 response units […]
Solutions of each spy molecule were prepared in buffer at concentrations based on previous structure-activity relationship studies of VHL ligands (K D expected in the nanomolar range for structures like spy molecules 16 and 22, or in the milimolar range for spy molecules similar to 1 and 9). From this first screen, the binding affinities were roughly estimated using the Biacore T200 evaluation software (GE Healthcare), then measurements were repeated using concentrations above and below the KD obtained in the first round to generate better curves for fitting the data accurately. Contact and dissociation times varied across the different compounds tested, but in […]
dissociated from the surface in less than sixty seconds.
Data analysis was performed using the steady state responses of the double-referenced sensorgrams (raw data subtracted from blank and reference surface injections) obtained for each concentration tested. These responses were plotted against the respective concentrations and the data fitted to a 1: 1 binding model u sing the Biacore T200 evaluation software and the following equation: […]
Where Req is the steady-state response at a given concentration C. Deviations in Req were corrected by adding an ‘offset’ term to the equation. KD is the dissociation constant to be determined and RMAX is the maximum response expected for a given compound according to the equation below:
Where n is the stoichiometry of the interaction ( in this case, n = 1) and RProtein is the immobilization level of protein. MWCompound and MWProtein are the molecular weights of compound and protein, respectively. Sensorgrams and fitting parameters for all spy molecules can be found in section 7.

VHL (VBC complex) [3] = molecular target: T1, VHL (VBC complex); assay: 19F CPMG NMR transverse relaxation rate (R2) and R2 contrast (C2) of spy molecule with and without protein; type: binding
[4] = Spy molecule 100 μM, no protein
[5] = SPR, 20 °C, steady-state 1:1 fit, footnote b values fitted because RMAX was not reached experimentally, read-out: K D, SPR
[6] = SPR, responses too low, data could not be fitted, read-out: KD
[7] = SPR steady-state fit, supplement section 7, read-out: KD (Biacore T200 fit)
[8] = SPR fit with very large error or RMAX above theoretical, unspecific / promiscuous binding suspected, read-out: KD (Biacore T200 fit, judged unreliable)

SMILES	R2 (VHL (VBC complex) [1]; Spy molecule 100 μM + VBC 1 μM)	R2 contrast – C2 (VHL (VBC complex) [1]; Spy molecule 100 μM + VBC 1 μM)	R2 (VHL (VBC complex) [1]; [4])	Kd [2, 5]	Kd [2, 6]	Kd [2, 7]	R2 (VHL (VBC complex) [3]; section 8.3: spy molecules at 50 μM in absence of VBC (sub-head prints Spy molecule 100 μM))	R2 (VHL (VBC complex) [3]; section 8.3: spy molecules at 50 μM in presence of VBC 1 μM (sub-head prints 100 μM))	R2 contrast – C2 (VHL (VBC complex) [3]; section 8.3: spy molecules at 50 μM, VBC 1 μM)	K D, SPR (footnote symbol instead of value) ([2]; SPR)	Kd [2, 8]	SPR binding behaviour ([2]; SPR, supplement section 7)	binding kinetics / dissociation rates by SPR ([2]; SPR)
O=C(NCc1ccc(Br)c(C(F)(F)F)c1)[C@@H]1C[C@@H](O)CN1 [Compound 1]	1.115 ± 0.020 s⁻¹	4.1 ± 3.1%	1.069 ± 0.028 s⁻¹	> 1500 µM	> 1000 µM	–	–	–	–	–	–	–	–
CC(=O)N1C[C@H](O)C[C@H]1C(=O)NCc1ccc(Br)c(C(F)(F)F)c1 [Compound 2]	1.251 ± 0.021 s⁻¹	6.5 ± 2.2%	1.170 ± 0.019 s⁻¹	657 ± 49 µM	–	657 µM	–	–	–	–	–	–	–
CC(=O)NC(C(=O)N1CC(O)CC1C(=O)NCc1ccc(Br)c(C(F)(F)F)c1)C(C)(C)C (stereo not shown) [Compound 4]	1.924 ± 0.037 s⁻¹	38.9 ± 2.5%	1.175 ± 0.027 s⁻¹	4.39 ± 0.12 µM	–	4.39 µM	–	–	–	–	–	–	–
Cc1ncsc1-c1ccc(CNC(=O)[C@@H]2C[C@@H](O)CN2)cc1C(F)(F)F [Compound 5]	0.936 ± 0.011 s⁻¹	2.2 ± 1.8%	0.915 ± 0.012 s⁻¹	> 1500 µM	> 1000 µM	–	–	–	–	–	–	–	–
CC(=O)N1C[C@H](O)C[C@H]1C(=O)NCc1ccc(-c2scnc2C)c(C(F)(F)F)c1 [Compound 6]	1.760 ± 0.039 s⁻¹	37.7 ± 2.6%	1.096 ± 0.020 s⁻¹	878 ± 98 µM	–	878 µM	1.255 ± 0.043 s⁻¹	1.951 ± 0.062 s⁻¹	35.7 ± 4.0%	–	–	–	–
Cc1ncsc1-c1ccc(CNC(=O)[C@@H]2C[C@@H](O)CN2C(=O)CC(C)(C)C)cc1C(F)(F)F [Compound 7]	3.614 ± 0.088 s⁻¹	62.1 ± 3.0%	1.368 ± 0.033 s⁻¹	67.1 ± 14 µM	–	67.1 µM	–	–	–	–	–	–	–
CC(=O)NC(C(=O)N1CC(O)CC1C(=O)NCc1ccc(-c2scnc2C)c(C(F)(F)F)c1)C(C)(C)C (stereo not shown) [Compound 8]	1.639 ± 0.022 s⁻¹	17.7 ± 2.2%	1.349 ± 0.027 s⁻¹	2.99 ± 0.75 µM	–	2.99 µM	–	–	–	–	–	–	–
O=C(NCc1ccc(Br)cc1C(F)(F)F)[C@@H]1C[C@@H](O)CN1 [Compound 9]	1.279 ± 0.022 s⁻¹	0.9 ± 2.7%	1.268 ± 0.026 s⁻¹	> 1500 µM	> 1000 µM	–	–	–	–	–	–	–	–
Cc1ncsc1-c1ccc(CNC(=O)[C@@H]2C[C@@H](O)CN2)c(C(F)(F)F)c1 [Compound 13]	1.609 ± 0.017 s⁻¹	3.2 ± 2.0%	1.558 ± 0.028 s⁻¹	–	–	–	–	–	–	^c	2530 µM	unspecific / promiscuous binding to the protein surface	–
CC(=O)N1C[C@H](O)C[C@H]1C(=O)NCc1ccc(-c2scnc2C)cc1C(F)(F)F [Compound 14]	3.425 ± 0.073 s⁻¹	53.9 ± 2.5%	1.579 ± 0.022 s⁻¹	–	–	–	–	–	–	^c	223 µM	bind unspecifically / promiscuously to the protein surface	–
Cc1ncsc1-c1ccc(CNC(=O)[C@@H]2C[C@@H](O)CN2C(=O)CC(C)(C)C)c(C(F)(F)F)c1 [Compound 15]	2.634 ± 0.058 s⁻¹	41.3 ± 2.7%	1.545 ± 0.035 s⁻¹	35.2 ± 7 µM	–	35.2 µM	–	–	–	–	–	–	–
CC(=O)NC(C(=O)N1CC(O)CC1C(=O)NCc1ccc(-c2scnc2C)cc1C(F)(F)F)C(C)(C)C (stereo not shown) [Compound 16]	1.828 ± 0.031 s⁻¹	1.3 ± 2.4%	1.805 ± 0.032 s⁻¹	0.268 ± 0.03 µM	–	0.268 µM	–	–	–	–	–	–	too high to be determined accurately
O=C(NCc1ccc(Br)cc1)C1CC(O)CN1C(=O)C(F)(F)F (stereo not shown) [Compound 17]	3.189 ± 0.066 s⁻¹	62.0 ± 2.6%	1.213 ± 0.028 s⁻¹	645 ± 100 µM	–	–	–	–	–	–	–	–	–
CC(C)(C)C(NC(=O)C(F)(F)F)C(=O)N1CC(O)CC1C(=O)NCc1ccc(Br)cc1 (stereo not shown) [Compound 21]	4.109 ± 0.247 s⁻¹	3.7 ± 8.8%	3.959 ± 0.262 s⁻¹	0.447 ± 0.085 µM	–	0.447 µM	–	–	–	–	–	–	too high to be determined accurately
